Test results from patent publication US8097629B2, “Dihydropyridinone derivatives” (Bayer Pharma Aktiengesellschaft, priority 2004, dated 2012).

Legend:
[1] = target: T1, human neutrophil elastase (HNE) (Homo sapiens, UniProt P08246); experiment: In vitro inhibition of HNE using a fluorogenic peptide substrate; assay type: biochemical; conditions: substrate MeOSuc-Ala-Ala-Pro-Val-AMC, 384 MTP format
T1 construct: purchased SERVA Electrophoresis GmbH, Heidelberg, Germany #20927.01
T1 sequence (P08246 30-267): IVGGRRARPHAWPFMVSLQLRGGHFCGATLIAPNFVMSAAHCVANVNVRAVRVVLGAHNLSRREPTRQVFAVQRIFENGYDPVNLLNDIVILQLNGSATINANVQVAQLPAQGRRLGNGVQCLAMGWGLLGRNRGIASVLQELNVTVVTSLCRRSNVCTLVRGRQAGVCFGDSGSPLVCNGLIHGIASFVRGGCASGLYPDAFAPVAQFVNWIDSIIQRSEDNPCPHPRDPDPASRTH
Description: I. In vitro Enzyme Assays of Human Neutrophil Elastase (HNE)
assay buffer: 0.1 M HEPES-NaOH buffer pH 7.4, 0.5 M NaCl, 0.1% (w/v) bovine serum albumin;
suitable concentration (see below) of HNE (18 U/mg lyophil., #20927.01, SERVA Electrophoresis GmbH, Heidelberg, Germany) in assay buffer;
suitable concentration (see below) of substrate in assay buffer;
suitable concentration of test compounds diluted with assay buffer from a 10 mM stock solution in DMSO.
In vitro Inhibition of HNE Using a Fluorogenic Peptide Substrate (Continuous Read-out Signal, 384 MTP Assay Format):
In this protocol, the elastase substrate MeOSuc-Ala-Ala-Pro-Val-AMC (#324740, Calbiochem-Novabiochem Corporation, Merck KGaA, Darmstadt, Germany) is used. The test solution is prepared by mixing 10 μl of test compound dilution, 20 μl of HNE enzyme dilution (final concentration 8-0.4 μU/ml, routinely 2.1 μU/ml) and 20 μl of substrate dilution (final concentration 1 mM-1 μM, routinely 20 μM), respectively. The solution is incubated for 0-2 hrs at 37° C. (routinely one hour). The fluorescence of the liberated AMC due to the enzymatic reaction is measured at 37° C. (TECAN spectra fluor plus plate reader). The rate of increase of the fluorescence (ex. 395 nm, em. 460 nm) is proportional to elastase activity. IC50 values are determined by RFU-versus-[I] plots. Km and Km(app.) values are determined by Lineweaver-Burk plots and converted to Ki values by Dixon plots.

[2] = tested on: human polymorphonuclear cells (PMNs); experiment: In vitro PMN elastolysis assay; assay type: cell-based; conditions: mean±s.e.m.
Description: In vitro PMN Elastolysis Assay:
This assay is used to determine the elastolytic potential of human polymorphonuclear cells (PMNs) and assess the proportion of degradation due to neutrophil elastase [cf. Z. W. She et al., Am. J Respir. Cell. Mol. Biol. 9, 386-392 (1993)].
Tritiated elastin, in suspension, is coated on to a 96 well plate at 10 μg per well. Test and reference [ZD-0892 (J. Med. Chem. 40, 1876-1885, 3173-3181 (1997), WO 95/21855) and α1 protease inhibitor (α1PI)] compounds are added to the wells at the appropriate concentrations. Human PMNs are separated from peripheral venous blood of healthy donors and resuspended in culture media. The neutrophils are added to the coated wells at concentrations ranging between 1×10^6 to 1×10^5 cells per well. Porcine pancreatic elastase (1.3 μM) is used as a positive control for the assay, and α1PI (1.2 μM) is used as the positive inhibitor of neutrophil elastase. The cellular, control is PMNs without compound at each appropriate cell density. The cells plus compounds are incubated in a humidified incubator at 37° C. for 4 hours. The plates are centrifuged to allow the harvest of cell supernatant only. The supernatant is transferred in 75 μl volumes to corresponding wells of a 96 well Lumaplate™ (solid scintillant containing plates). The plates are dried until no liquid is visible in the wells and read in a beta counter for 3 minutes per well. […]

Compound | IC50 [1] [nM] | also measured
COCCOCCCNC(=O)C1C(=O)N(c2cccc(C(F)(F)F)c2)C(C)=C(C(C)=O)C1c1ccc(C#N)cc1 (centres unmarked) [Example 61] | 50 | –
α1PI: α1 protease inhibitor, used as the positive inhibitor of neutrophil elastase | – | inhibition of 3H-elastin elastolysis ([2]; at 1.2 μM, n=3 different donors at 3.6×10^5 cells per well): 83.46±3.97%
CC(=O)C1=C(C)N(c2cccc(C(F)(F)F)c2)C(=O)C(C(=O)N2CCN3CCCC3C2)C1c1ccc(C#N)cc1 (centres unmarked) [Example 34] | 60 | –
CC(=O)C1=C(C)N(c2cccc(C(F)(F)F)c2)C(=O)C(C(=O)N2CCN(CCN3CCOCC3)CC2)C1c1ccc(C#N)cc1 (centres unmarked) [Example 45] | 70 | –
COc1ccc(C(=O)N[C@H](C(=O)N2CCC[C@H]2C(=O)N[C@H](C(=O)C(F)(F)F)C(C)C)C(C)C)cc1 [ZD-0892] | – | IC50 ([2]; n=2 different donors at 3.6×10^5 cells per well): 45.5 ± 7.75 nM

The remaining compounds from weak to strong by IC50 [1], led by results:

IC50 [1] [nM] | Compound | also measured
60 | CCOC(=O)N1CCN(C(=O)C2C(=O)N(c3cccc(C(F)(F)F)c3)C(C)=C(C(C)=O)C2c2ccc(C#N)cc2)CC1 (centres unmarked) [Example 54] | –
40 | COc1ccc(CN(C)C(=O)C2C(=O)N(c3cccc(C(F)(F)F)c3)C(C)=C(C(C)=O)C2c2ccc(C#N)cc2)cc1 (centres unmarked) [Example 19] | –
30 | CC(=O)C1=C(C)N(c2cccc(C(F)(F)F)c2)C(=O)C(C(=O)N(C)c2cccc(C)c2)C1c1ccc(C#N)cc1 (centres unmarked) [Example 27] | –
